Ki, pKa and ED50 data for 28 molecules are collected here from ChEMBL document CHEMBL1135870, “4-Aminoquinolines as a novel class of NR1/2B subtype selective NMDA receptor antagonists” (Bioorg Med Chem Lett, 2002).

One series addresses Glutamate NMDA receptor. The series can be described thus: Binding affinity against N-methyl-D-aspartate glutamate receptor using [3H]25-6981 as radioligand. The format is protein-complex assay.
A short description of series [1]: The ionization constant for the compound was tested using a potentiometric method. The format is physicochemical.
A further series relates to Mus musculus. Briefly: In vivo effective dose required for 50% inhibition of sound induced seizures upon intraperitoneal dose, 30 min before testing in DBA/2 mice. The format is functional. Conditions: ip.

One may read the Ki as a dissociation constant, usually derived from enzyme kinetics or from competition with a known ligand. High values mean weaker binding, low ones tighter binding. `OCC(O)CNc1cc(-c2ccc(O)cc2)nc2ccccc12` (stereo not given) came in with a Ki at Glutamate NMDA receptor greater than 4000 nM.
One may read the pKa as the pH at which an ionisable group is half protonated. Read a low pKa as a group that gives up its proton readily. `OCC(O)CNc1cc(-c2ccccc2)nc2ccccc12` (stereo not given) returned a pKa in series [1] of 8.4. The molecule also gave a Ki at Glutamate NMDA receptor of 260 nM.
`CCCNc1cc(-c2ccccc2)nc2ccccc12` registered a Ki on Glutamate NMDA receptor of 4900 nM.
Take `COc1ccc(-c2cc(NCC(O)CO)c3ccccc3n2)cc1` (stereo not given): the affinity at Glutamate NMDA receptor corresponds to a Ki of 19 nM.
On the same count and under the same terms, for `CC(C)Oc1ccc(-c2cc(NCC(O)CO)c3ccccc3n2)cc1` (stereo not given) the value was 500 nM; for `OCC(O)CNc1cc(-c2ccc3c(c2)CCCC3)nc2ccccc12` (stereo not given), 22 nM.
By ED50 is commonly meant the midpoint of the dose-response relation. Turning to `Cc1ccc(-c2cc(NC[C@H](C)O)c3ccccc3n2)cc1Cl`, in the series with Mus musculus, the 50% effect level (ED50) was put at a dose of 12 mg/kg. At Glutamate NMDA receptor, this molecule registered a Ki of 10 nM.
For `COc1ccc(-c2cc(NCCO)c3ccccc3n2)cc1`, in that order: 25 mg/kg and 15 nM.
Take `CC(=O)CNc1cc(-c2ccccc2)nc2ccccc12`: at Glutamate NMDA receptor, affinity was put at a Ki of 7900 nM.
The same measure, in the same setting: for `OCC(O)CNc1cc(C2CCc3ccccc3C2)nc2ccccc12` (stereo in doubt; 19) the value was 100 nM; for `COc1ccc(-c2cc(NCC(O)CO)c3ccccc3n2)cc1C` (stereo not given), 26 nM; for `OCC(O)CNc1ccnc2ccccc12` (stereo not given), greater than 35000 nM.
The same measure, in the same setting: for `Cc1ccc(-c2cc(NCC(O)CO)c3ccccc3n2)cc1` (stereo not given) the value was 23 nM; for `CC(O)CNc1cc(-c2ccccc2)nc2ccccc12` (stereo not given), 260 nM.
Same read-out and setting: in the case of `OCC(O)CNc1cc(-c2ccc(Cl)cc2)nc2ccccc12` (stereo not given) it was 100 nM.
Turning to `OCC(O)CNc1cc(C2CCc3ccccc3C2)nc2ccccc12` (stereo in doubt; 20), the Ki on Glutamate NMDA receptor was 11 nM.
The same measure, in the same setting: for `Cc1cc(NCC(O)CO)c2ccccc2n1` (stereo not given) the value was greater than 40000 nM; for `COCCNc1cc(-c2ccccc2)nc2ccccc12`, 7500 nM.
Take `C[C@@H](O)CNc1cc(-c2ccccc2)nc2ccccc12`: on Glutamate NMDA receptor, affinity was put at a Ki of 450 nM.
Still for that read-out and setting: in the case of `Cc1ccccc1-c1cc(NCC(O)CO)c2ccccc2n1` (stereo not given) it was 3700 nM.
Same read-out and setting: for `OCCNc1cc(-c2ccccc2)nc2ccccc12` the value was 110 nM.
In the case of `OCCNc1cc(N2CCc3ccccc3C2)nc2ccccc12`, the ED50 in the series on Mus musculus is less than 12 mg/kg. This molecule also came in with a Ki at Glutamate NMDA receptor of 3.5 nM.
Turning to `COc1ccc(-c2cc(NC[C@H](C)O)c3ccccc3n2)cc1C`, the ED50 in the series on Mus musculus was found to be 17 mg/kg. Further, the Ki at Glutamate NMDA receptor is 10 nM.
`Cc1ccc(-c2cc(NCC(O)CO)c3ccccc3n2)cc1Cl` (stereo not given): at Glutamate NMDA receptor, the Ki turned out to be 17 nM.
Turning to `c1ccc(-c2ccc3ccccc3n2)cc1` [2-PHENYLQUINOLINE], in series [1], the pKa stood at 5.2. The molecule also returned a Ki on Glutamate NMDA receptor greater than 35000 nM.
As to `CCCCc1cc(NCC(O)CO)c2ccccc2n1` (stereo not given), affinity on Glutamate NMDA receptor was put at a Ki of 33000 nM.
Molecule `C[C@H](O)CNc1cc(-c2ccccc2)nc2ccccc12` showed a Ki at Glutamate NMDA receptor of 75 nM.
Consider `Nc1cc(-c2ccccc2)nc2ccccc12`, for which, in series [1], the pKa came out at 8.5. At Glutamate NMDA receptor, affinity was put at a Ki of 413 nM.
